According to patent US20040142979A1, “Heteroarylsulfonylmethyl hydroxamic acids and amides and their use as protease inhibitors” (priority 2002, published 2004):
One block for each molecule: values may come before it.

Assays:
Format in all cases: biochemical
Settings in all cases: human recombinant enzyme; 4 μM substrate (A); apparent Ki without substrate correction
Human recombinant MMP-2 = target: T1, Human recombinant MMP-2 (Homo sapiens, UniProt P08253); assay: In vitro MMP inhibition analysis (fluorogenic peptide substrate), MMP-2
T1 construct: made in house; host or cells: MMP-2-transfected p2AHT2 cells
T1 sequence (P08253 110-660): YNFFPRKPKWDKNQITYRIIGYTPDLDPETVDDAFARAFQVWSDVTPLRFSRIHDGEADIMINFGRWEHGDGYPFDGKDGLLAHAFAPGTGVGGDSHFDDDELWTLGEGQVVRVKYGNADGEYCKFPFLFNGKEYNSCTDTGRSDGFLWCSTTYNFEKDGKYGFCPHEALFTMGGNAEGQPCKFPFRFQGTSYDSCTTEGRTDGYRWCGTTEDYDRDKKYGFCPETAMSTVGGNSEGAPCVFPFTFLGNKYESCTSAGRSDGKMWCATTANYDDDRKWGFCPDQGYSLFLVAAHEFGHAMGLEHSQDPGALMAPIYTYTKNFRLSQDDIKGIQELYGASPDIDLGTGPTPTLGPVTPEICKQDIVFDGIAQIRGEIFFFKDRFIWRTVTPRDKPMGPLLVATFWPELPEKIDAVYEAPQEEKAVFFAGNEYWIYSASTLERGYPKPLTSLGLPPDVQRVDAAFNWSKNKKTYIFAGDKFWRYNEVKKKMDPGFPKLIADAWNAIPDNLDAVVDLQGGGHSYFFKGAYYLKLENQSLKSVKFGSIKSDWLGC
Method: (§1) Several compounds and salts were analyzed in an in vitro assay to determine their ability to inhibit the MMP cleavage of peptide substrates. Inhibition constant (Ki) were calculated from the assayed compound-MMP interactions.
(§2) Human recombinant MMP-1, MMP-2, MMP-9, MMP-13, and MMP-14 were used in this assay. All enzymes were prepared in Assignee's laboratories following usual laboratory procedures. Protocols for the preparation and use of these enzymes are available in the scientific literature. See, e.g., Enzyme Nomenclature (Academic Press, San Diego, Calif., 1992) (and the citations therein). See also, Freije et al., J. Biol. Chem., 269(24), 16766-16773 (1994).
The MMP-2 proenzyme was purified by gelatin Sepharose chromatography from MMP-2- transfected p2AHT2 cells provided by Dr. Gregory Goldberg of Washington University (St. Louis, Mo.).
(§3) All MMPs were activated using 4-aminophenylmercuric acetate (“APMA”, Sigma Chemical, St. Louis, Mo.) or trypsin. MMP-9 also was activated using human recombinant MMP-3 (purified in Assignee's laboratory following standard cloning and purification techniques).
(§4) The following fluorogenic, methoxycoumarin-containing polypeptide substrate (A) was used in the MMP inhibition assays:
(§5) MCA-ArgProLeuGlyLeuDpaAlaArgGluArgNH2 (A)
(§6) “MCA” is 7-methoxycoumarin-4-yl acetyl. Substrate (A) was prepared Assignee's laboratory. In the absence of MMP inhibitory activity, the substrate is cleaved at the Gly-Leu peptide bond. This cleavage separates the highly fluorogenic peptide from the 2,4-dinitrophenyl quencher, thus resulting in increase of fluorescent intensity.
(§7) The stock solutions of the assayed compounds and salts were prepared in 1% dimethyl sulfoxide (DMSO). These stock solutions were diluted in Buffer A (100 mM Tris-HCl, 100 mM NaCl, 10 mM CaCl2, 0.05% polyoxyethylene 23 lauryl ether, pH 7.5) to obtain solutions with different compound concentrations, i.e., assay solutions with different concentrations of the assayed MMP inhibitory compound. The experiment controls contained the same amount of Buffer A/DMSO as the assayed sample, but contained none of the tested compound or salt.
(§8) The assays from which the Ki determinations were made were performed as follows. The assayed compound samples were incubated in separate wells of untreated white polystyrene plates (Nunc Nalgene International, Rochester, N.Y.), and analyzed on a Tecan SpectraFlour Plus plate reader. The excitation wavelength was 330 nm, and the emission wavelength -420 nm. All samples (assayed compounds and controls) were incubated in separate plate wells at room temperature for 1 hr in the presence of 4 μM of MMP substrate (A). In the absence of MMP inhibitory activity, substrate (A) was cleaved at the Gly-Leu bond resulting in an increase of relative fluorescence. Inhibition was observed as a reduced rate of this increase in relative fluorescence. […] This protocol is a modification of method by Knight et al., FEBS Lett., 296(3), 263-266 (1992). Apparent inhibitory constants were determined by non-linear regression of reaction velocity as a function of inhibitor and enzyme concentration using Morrison's equation, as described by Kuzmic, P., et al., Anal. Biochem., 286(1):45-50 (2000). Modifications were made in the non-linear regression method to allow a common control reaction rate and effective enzyme concentration to be shared between all dose-response relationships on a given assay plate. Since the substrate concentration was chosen to be at or below the Km, the apparent Ki's from this analysis were reported as Ki's without correction for the influence of substrate.
(§9) The above protocols were used to determine MMP inhibition Ki constants for the compounds in Examples 1, 2, and 4-42 above. All Ki values in Table 3 are given in nM units.

Human recombinant MMP-1 = target: T2, Human recombinant MMP-1 (Homo sapiens, UniProt P03956); assay: In vitro MMP inhibition analysis (fluorogenic peptide substrate), MMP-1
T2 construct: made in house; host or cells: MMP-1-transfected HT-1080 cells (spent media)
T2 sequence (P03956 100-469): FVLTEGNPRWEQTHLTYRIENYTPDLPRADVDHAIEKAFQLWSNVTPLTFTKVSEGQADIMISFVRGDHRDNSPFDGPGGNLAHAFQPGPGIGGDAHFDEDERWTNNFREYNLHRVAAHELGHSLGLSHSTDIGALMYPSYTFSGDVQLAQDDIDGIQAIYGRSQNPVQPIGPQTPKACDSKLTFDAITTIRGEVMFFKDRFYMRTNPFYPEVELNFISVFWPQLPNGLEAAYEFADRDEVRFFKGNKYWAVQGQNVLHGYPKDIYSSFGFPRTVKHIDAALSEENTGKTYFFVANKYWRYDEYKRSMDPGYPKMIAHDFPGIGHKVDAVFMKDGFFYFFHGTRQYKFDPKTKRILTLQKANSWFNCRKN
Method: as §1, §2
The MMP-1 proenzyme was purified from the spent media of MMP-1-transfected HT-1080 cells provided by Dr. Harold Welgus of Washington University (St. Louis, Mo.). The protein was purified on a zinc chelating column.
as §3, §4, §5, §6, §7, §8, §9

Human recombinant MMP-9 = target: T3, Human recombinant MMP-9 (Homo sapiens, UniProt P14780); assay: In vitro MMP inhibition analysis (fluorogenic peptide substrate), MMP-9
T3 construct: made in house; host or cells: MMP-9-transfected HT1080 cells (spent media)
Method: as §1, §2
The MMP-9 proenzyme was purified by gelatin Sepharose chromatography from spent media of MMP-9-transfected HT1080 cells provided by Dr. Howard Welgus of Washington University (St. Louis, Mo.).
as §3, §4, §5, §6, §7, §8, §9

T3 sequence (P14780 107-707 limits assumed): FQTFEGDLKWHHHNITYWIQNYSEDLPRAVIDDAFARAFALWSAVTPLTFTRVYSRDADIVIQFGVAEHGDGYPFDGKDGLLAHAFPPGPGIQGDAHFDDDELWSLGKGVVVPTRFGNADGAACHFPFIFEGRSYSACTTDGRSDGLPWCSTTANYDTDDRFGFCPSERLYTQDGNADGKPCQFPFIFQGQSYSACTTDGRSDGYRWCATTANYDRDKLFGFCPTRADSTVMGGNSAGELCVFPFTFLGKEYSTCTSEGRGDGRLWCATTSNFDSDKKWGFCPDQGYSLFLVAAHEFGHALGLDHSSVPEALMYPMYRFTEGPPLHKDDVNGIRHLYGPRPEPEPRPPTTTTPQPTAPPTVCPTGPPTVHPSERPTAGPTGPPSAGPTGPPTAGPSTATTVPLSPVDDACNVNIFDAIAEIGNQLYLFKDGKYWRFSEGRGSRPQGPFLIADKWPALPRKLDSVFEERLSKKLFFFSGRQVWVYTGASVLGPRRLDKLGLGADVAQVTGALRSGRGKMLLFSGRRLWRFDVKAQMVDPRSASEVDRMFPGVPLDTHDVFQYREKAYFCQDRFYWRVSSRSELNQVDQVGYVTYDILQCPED

Ki (Human recombinant MMP-2): 4.43 nM
Ki (Human recombinant MMP-1): > 1250 nM
Ki (Human recombinant MMP-9): 7.2 nM
SMILES: O=C(NO)C1(S(=O)(=O)c2ccc3nc(-c4ccc5c(c4)OCO5)sc3c2)CCOCC1 [Example 65]

Ki (Human recombinant MMP-2): 3.14 nM
Ki (Human recombinant MMP-1): > 10000 nM
Ki (Human recombinant MMP-9): 10.2 nM
SMILES: O=C(NO)C1(S(=O)(=O)c2ccc(-c3ccc(CCC(F)(F)C(F)(F)F)cn3)s2)CCOCC1 [Example 49]

Ki (Human recombinant MMP-2): 8200 nM
Ki (Human recombinant MMP-1): > 10000 nM
Ki (Human recombinant MMP-9): > 10000 nM
SMILES: CCN(CC)C(=O)c1ccc(-c2ccc(S(=O)(=O)C3(C(=O)NO)CCOCC3)cn2)cc1 [Example 79]

Further lines, the molecule ahead of its results:

SMILES: CN(C(=O)Cc1ccc(-c2ccc(S(=O)(=O)C3(C(=O)NO)CCOCC3)cn2)cc1)c1ccc(OC(F)(F)F)cc1 [Example 75]
Ki (Human recombinant MMP-2): 0.218 nM
Ki (Human recombinant MMP-1): > 10000 nM
Ki (Human recombinant MMP-9): 0.159 nM

SMILES: O=C(NO)C1(S(=O)(=O)c2ccc3nc(-c4ccc(C(F)(F)F)cc4)sc3c2)CCOCC1 [Example 57]
Ki (Human recombinant MMP-2): 1.86 nM
Ki (Human recombinant MMP-1): > 10000 nM
Ki (Human recombinant MMP-9): 0.964 nM

SMILES: O=C(NO)C1(S(=O)(=O)c2ccc3nc(N4CCC(Oc5ccc(OC(F)(F)F)cc5)CC4)sc3c2)CCOCC1 [Example 56]
Ki (Human recombinant MMP-2): 40.3 nM
Ki (Human recombinant MMP-1): > 10000 nM
Ki (Human recombinant MMP-9): 68.5 nM

SMILES: O=C(NO)C1(S(=O)(=O)c2ccc(-c3ccc(CCC(F)(F)C(F)(F)F)cc3)nc2)CCOCC1 [Example 69]
Ki (Human recombinant MMP-2): 0.766 nM
Ki (Human recombinant MMP-1): > 10000 nM
Ki (Human recombinant MMP-9): 8.93 nM

SMILES: CCOc1ccc(-c2nc3ccc(S(=O)(=O)C4(C(=O)NO)CCOCC4)cc3s2)cc1 [Example 66]
Ki (Human recombinant MMP-2): 2.21 nM
Ki (Human recombinant MMP-1): > 312 nM
Ki (Human recombinant MMP-9): 3.37 nM
